Results taken from BindingDB's records for doi:10.1021/jm3012917 (Philipps University Marburg, 2013).

Target: Coagulation factor VII (Homo sapiens) (UniProt P08709)
Test: Inhibition of human FVIIa

Sequence of Coagulation factor VII (Homo sapiens) (P08709 whole entry, looked up): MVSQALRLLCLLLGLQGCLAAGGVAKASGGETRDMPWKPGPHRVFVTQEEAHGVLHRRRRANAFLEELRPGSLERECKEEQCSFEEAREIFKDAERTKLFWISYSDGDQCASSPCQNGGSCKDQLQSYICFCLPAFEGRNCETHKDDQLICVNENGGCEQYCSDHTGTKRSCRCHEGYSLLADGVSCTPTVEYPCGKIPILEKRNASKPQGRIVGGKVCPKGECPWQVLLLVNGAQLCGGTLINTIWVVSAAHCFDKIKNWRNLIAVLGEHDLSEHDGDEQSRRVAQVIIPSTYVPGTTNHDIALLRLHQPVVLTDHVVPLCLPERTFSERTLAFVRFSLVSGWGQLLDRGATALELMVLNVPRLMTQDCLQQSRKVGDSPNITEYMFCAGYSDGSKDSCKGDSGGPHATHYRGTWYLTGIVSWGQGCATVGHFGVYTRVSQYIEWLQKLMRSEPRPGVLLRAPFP

Ki [µM]	SMILES
> 50	N=C(N)c1ccc(CNC(=O)[C@@H]2Cc3ccc(cc3)NC(=O)CCN3CCN(CCC(=O)Nc4ccc(cc4)C[C@@H](NS(=O)(=O)Cc4ccccc4)C(=O)N2)CC3)cc1
> 30	N=C(N)c1ccc(CNC(=O)[C@@H]2Cc3ccc(cc3)NC(=O)CN3CCN(CC3)CC(=O)Nc3ccc(cc3)C[C@@H](NS(=O)(=O)Cc3ccccc3)C(=O)N2)cc1
